The text below walks through data of ChEMBL document CHEMBL5108065 (J Med Chem, 2022).

Data set [1] relates to Plasmodium falciparum. The data set can be described thus: Antimalarial activity against Plasmodium falciparum infected NSG mouse model at 50 mg/kg, po administered daily for 3 days. The format is functional, organism-based. The following applies: time 3.0 day.
A short description of data set [2]: AUClast in NSG mouse at 50 mg/kg, po by LC-MS/MS analysis. The format is ADME, organism-based. Details: time 0 - last, dose 50 mg/kg, route po. As to conditions: in vivo.
Data set [3] has as its system Plasmodium berghei. The data set can be described thus: Antimalarial activity against luciferase expressing Plasmodium berghei sporozoites infected in naive C57B/6 liver mouse model assessed as decrease in liver infection at 50 mg/kg, po administered once daily on day 8 by Giemsa staining based microscopic analysis. The format is functional, organism-based. The following applies: time 8.0 day.

Data set [4] has as its system Plasmodium berghei. Nature of the data set: Antimalarial activity against luciferase expressing Plasmodium berghei sporozoites infected in naive C57B/6 liver mouse model assessed as decrease in liver infection at 50 mg/kg, po administered twice daily on day 8 by Giemsa staining based microscopic analysis. The format is functional, organism-based. The following applies: time 8.0 day.

A short description of data set [5]: Solubility of the compound in FeSSIF. The format is physicochemical. As to conditions: simulated gi fluid.
Data set [6] in a line: Drug metabolism in human hepatocytes assessed as (S)-6-(2-chloro-3-((6-cyclopropylpyridin-3-yl)amino)phenyl)-2-imino-6-methyltetrahydropyrimidin-4(1H)-one metabolite formation. The data set is classed as ADME, cell-based, Hepatocyte.
A short description of data set [7]: Drug metabolism in human hepatocytes assessed as (S)-6-(2-chloro-3-((6-cyclopropylpyridin-3-yl)amino)phenyl)-2-imino-6-methyl-3-((2S,4S)-2-methyltetrahydro-2H-pyran-4-yl)tetrahydropyrimidin-4(1H)-one metabolite formation. The data set is classed as ADME, cell-based, Hepatocyte.
Data set [8] deals with HepG2. The data set can be described thus: Cytotoxicity against human HepG2 cells assessed reduction in cell viability. The data set is classed as toxicity, cell-based.
The target of data set [9] is Voltage-dependent L-type calcium channel subunit alpha-1C (Homo sapiens, UniProt Q13936). Nature of the data set: Inhibition of Cav1.2 (unknown origin) cardiac ion channel by patch clamp assay. The format is toxicity.
Chain of Voltage-dependent L-type calcium channel subunit alpha-1C (Q13936 whole entry): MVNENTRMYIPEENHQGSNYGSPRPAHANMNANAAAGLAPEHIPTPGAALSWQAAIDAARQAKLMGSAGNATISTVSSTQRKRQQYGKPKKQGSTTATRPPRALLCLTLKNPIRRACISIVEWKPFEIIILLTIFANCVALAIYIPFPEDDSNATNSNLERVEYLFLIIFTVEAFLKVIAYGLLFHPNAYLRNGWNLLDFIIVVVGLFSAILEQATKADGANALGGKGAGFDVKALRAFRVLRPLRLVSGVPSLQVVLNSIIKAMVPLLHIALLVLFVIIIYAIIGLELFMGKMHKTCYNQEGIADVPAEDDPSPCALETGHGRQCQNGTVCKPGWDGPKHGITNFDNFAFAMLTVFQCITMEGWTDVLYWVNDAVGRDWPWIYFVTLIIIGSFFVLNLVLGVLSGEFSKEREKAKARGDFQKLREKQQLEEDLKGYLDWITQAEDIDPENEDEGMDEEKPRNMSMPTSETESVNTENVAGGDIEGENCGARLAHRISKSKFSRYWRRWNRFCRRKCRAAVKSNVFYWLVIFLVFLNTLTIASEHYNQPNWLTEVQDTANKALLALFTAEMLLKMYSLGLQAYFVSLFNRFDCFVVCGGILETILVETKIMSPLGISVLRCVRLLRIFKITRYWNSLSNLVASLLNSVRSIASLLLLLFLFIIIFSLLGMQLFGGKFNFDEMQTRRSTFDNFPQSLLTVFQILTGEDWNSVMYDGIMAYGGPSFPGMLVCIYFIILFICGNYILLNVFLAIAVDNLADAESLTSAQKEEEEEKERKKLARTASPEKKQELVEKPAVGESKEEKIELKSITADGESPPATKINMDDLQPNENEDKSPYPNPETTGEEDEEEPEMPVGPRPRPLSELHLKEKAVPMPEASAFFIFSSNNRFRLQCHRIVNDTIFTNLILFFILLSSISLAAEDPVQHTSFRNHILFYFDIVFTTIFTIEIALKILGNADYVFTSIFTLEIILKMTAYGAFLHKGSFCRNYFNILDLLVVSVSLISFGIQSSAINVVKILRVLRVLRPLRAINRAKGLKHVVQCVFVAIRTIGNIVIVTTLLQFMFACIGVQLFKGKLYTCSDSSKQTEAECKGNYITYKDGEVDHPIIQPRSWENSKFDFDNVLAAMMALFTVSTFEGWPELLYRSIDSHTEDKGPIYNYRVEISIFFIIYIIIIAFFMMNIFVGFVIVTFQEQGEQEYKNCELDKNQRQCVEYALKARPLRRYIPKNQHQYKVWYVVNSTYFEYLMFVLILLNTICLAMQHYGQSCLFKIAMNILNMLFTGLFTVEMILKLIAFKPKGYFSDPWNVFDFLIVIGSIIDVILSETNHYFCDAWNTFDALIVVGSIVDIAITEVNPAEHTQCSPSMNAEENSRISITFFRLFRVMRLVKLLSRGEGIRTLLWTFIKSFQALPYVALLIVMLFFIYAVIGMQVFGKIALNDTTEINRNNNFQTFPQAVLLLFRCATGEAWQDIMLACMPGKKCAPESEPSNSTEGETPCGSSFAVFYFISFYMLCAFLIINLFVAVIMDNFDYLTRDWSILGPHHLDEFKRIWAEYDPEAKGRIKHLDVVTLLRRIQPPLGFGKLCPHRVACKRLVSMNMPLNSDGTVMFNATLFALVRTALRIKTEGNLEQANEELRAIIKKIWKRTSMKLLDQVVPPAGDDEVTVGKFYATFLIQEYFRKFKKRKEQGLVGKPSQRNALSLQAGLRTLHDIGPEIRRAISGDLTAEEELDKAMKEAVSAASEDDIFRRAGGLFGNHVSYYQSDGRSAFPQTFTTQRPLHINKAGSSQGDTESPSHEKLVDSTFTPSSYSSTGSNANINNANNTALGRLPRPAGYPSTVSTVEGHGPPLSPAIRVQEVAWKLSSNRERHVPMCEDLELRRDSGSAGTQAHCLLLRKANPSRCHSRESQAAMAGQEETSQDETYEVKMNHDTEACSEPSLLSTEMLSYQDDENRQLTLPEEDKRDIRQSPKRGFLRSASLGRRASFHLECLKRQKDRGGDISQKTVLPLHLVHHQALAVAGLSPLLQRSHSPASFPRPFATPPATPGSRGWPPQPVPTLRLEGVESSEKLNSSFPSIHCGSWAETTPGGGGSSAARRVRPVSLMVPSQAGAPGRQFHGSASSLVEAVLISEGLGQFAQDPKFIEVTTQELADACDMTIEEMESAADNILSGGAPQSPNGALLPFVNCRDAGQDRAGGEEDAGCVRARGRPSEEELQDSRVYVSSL
Data set [10] addresses T1, A-type voltage-gated potassium channel KCND3 (Homo sapiens, UniProt Q9UK17).
T1 sequence (Q9UK17 whole entry): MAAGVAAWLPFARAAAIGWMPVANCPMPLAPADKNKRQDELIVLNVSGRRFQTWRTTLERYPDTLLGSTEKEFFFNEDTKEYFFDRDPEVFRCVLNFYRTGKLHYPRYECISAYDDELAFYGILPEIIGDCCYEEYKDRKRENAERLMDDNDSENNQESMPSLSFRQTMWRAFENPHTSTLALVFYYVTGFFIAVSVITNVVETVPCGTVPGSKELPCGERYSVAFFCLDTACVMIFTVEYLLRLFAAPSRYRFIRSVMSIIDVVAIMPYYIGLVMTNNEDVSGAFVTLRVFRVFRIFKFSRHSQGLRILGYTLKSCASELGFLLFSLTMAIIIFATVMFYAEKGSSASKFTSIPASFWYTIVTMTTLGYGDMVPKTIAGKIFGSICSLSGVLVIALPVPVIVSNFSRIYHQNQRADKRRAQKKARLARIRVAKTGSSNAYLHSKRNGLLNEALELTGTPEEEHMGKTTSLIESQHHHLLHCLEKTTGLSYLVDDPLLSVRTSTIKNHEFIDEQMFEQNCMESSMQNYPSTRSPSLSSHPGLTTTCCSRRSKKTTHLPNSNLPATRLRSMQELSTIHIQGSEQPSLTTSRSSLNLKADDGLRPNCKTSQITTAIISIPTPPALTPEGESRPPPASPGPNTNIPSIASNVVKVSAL
Nature of the data set: Inhibition of Kv4.3 (unknown origin) by patch clamp method. The data set is classed as toxicity.

Data set [11] concerns Plasmodium falciparum. Nature of the data set: Antimalarial activity against Plasmodium falciparum 7G8 harbouring Pf-crt, Pf-mdrl,Pf-dhfr, Pf-dhps mutated loci assessed as inhibition of parasite growth pretreated for 48 hrs followed by [3H]-hypoxanthine addition measured after 24 hrs by scintillation counting method. The data set is classed as functional, organism-based.
Data set [12] deals with Plasmodium falciparum. Nature of the data set: Antimalarial activity against Plasmodium falciparum Dd2 harbouring Pf-crt, Pf-mdrl,Pf-dhfr, Pf-dhps mutated loci assessed as inhibition of parasite growth pretreated for 48 hrs followed by [3H]-hypoxanthine addition measured after 24 hrs by scintillation counting method. The data set is classed as functional, organism-based.

Data set [13] has as its system Plasmodium falciparum. The data set can be described thus: Antimalarial activity against Plasmodium falciparum K1 harbouring Pf-crt, Pf-mdrl,Pf-dhfr, Pf-dhps mutated loci assessed as inhibition of parasite growth pretreated for 48 hrs followed by [3H]-hypoxanthine addition measured after 24 hrs by scintillation counting method. The format is functional, organism-based.

Data set [14] deals with Plasmodium falciparum. Nature of the data set: Antimalarial activity against Plasmodium falciparum TM90C2b harbouring Pf-crt, Pf-mdrl,Pfd-hfr, Pf-cytbQ0 mutated loci assessed as inhibition of parasite growth pretreated for 48 hrs followed by [3H]-hypoxanthine addition measured after 24 hrs by scintillation counting method. The data set is classed as functional, organism-based.

Data set [15] has as its system Plasmodium falciparum. The data set can be described thus: Antimalarial activity against Plasmodium falciparum Dd2048 harbouring pfpi4k mutated loci assessed as inhibition of parasite growth pretreated for 48 hrs followed by [3H]-hypoxanthine addition measured after 24 hrs by scintillation counting method. The data set is classed as functional, organism-based.
The test system of data set [16] is Plasmodium falciparum. The data set can be described thus: Antimalarial activity against DDD107498 resistant Plasmodium falciparum Dd2 harbouring pfeef2 mutated loci assessed as inhibition of parasite growth pretreated for 48 hrs followed by [3H]-hypoxanthine addition measured after 24 hrs by scintillation counting method. The data set is classed as functional, organism-based.

In data set [17] the test system is Plasmodium falciparum. The data set can be described thus: Antimalarial activity against ELQ300 resistant Plasmodium falciparum Dd2 harbouring pfcytB mutated loci assessed as inhibition of parasite growth pretreated for 48 hrs followed by [3H]-hypoxanthine addition measured after 24 hrs by scintillation counting method. The format is functional, organism-based.

The target in data set [18] is Plasmepsin X (Plasmodium falciparum (isolate 3D7), UniProt Q8IAS0). Nature of the data set: Inhibition of PMX in Plasmodium falciparum 3D7 HA epitope.
Chain of Plasmepsin X (Q8IAS0 whole entry): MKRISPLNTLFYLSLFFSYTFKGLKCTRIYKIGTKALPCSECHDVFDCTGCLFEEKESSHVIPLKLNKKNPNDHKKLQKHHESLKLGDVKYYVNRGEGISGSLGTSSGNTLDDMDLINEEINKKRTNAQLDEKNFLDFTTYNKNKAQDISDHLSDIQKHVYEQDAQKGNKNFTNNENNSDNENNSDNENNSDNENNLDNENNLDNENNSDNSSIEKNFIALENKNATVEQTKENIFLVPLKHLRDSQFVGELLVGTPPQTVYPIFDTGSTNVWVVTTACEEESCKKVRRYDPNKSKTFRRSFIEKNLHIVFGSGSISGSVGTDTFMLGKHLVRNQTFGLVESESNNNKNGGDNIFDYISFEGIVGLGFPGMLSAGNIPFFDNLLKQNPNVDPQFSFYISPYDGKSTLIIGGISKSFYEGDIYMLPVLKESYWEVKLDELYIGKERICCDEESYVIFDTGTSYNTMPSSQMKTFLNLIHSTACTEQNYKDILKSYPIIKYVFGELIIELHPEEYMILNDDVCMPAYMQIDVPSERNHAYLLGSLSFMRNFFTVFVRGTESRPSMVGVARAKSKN
Data set [19] concerns Plasmodium falciparum. The data set can be described thus: Antimalarial activity against Plasmodium falciparum infected NSG mouse model assessed as accumulation of circulating mature schizonts measured after 2 cycles of drug exposure at 60 mg/kg, po bid administered daily for 3 days. The format is functional, organism-based. As to conditions: time 3.0 day.
Data set [20] in a line: Intrinsic clearance in rat hepatocytes measured per 10^6 cells. The format is ADME, cell-based, Hepatocyte.
Data set [21] is described as follows: Clearance in Cynomolgus monkey blood at 1 mg/kg, iv measured at 2 to 72 hrs by LC-MS/MS analysis. The data set is classed as ADME, organism-based, Macaca fascicularis. The following applies: whole blood, time 2-72 hrs.
The nature of data set [22]: AUC in Cynomolgus monkey blood at 1 mg/kg, iv measured at 2 to 72 hrs by LC-MS/MS analysis. Also on record: dose 1 mg/kg, time 2-72 hrs, route iv. The data set is classed as ADME, organism-based, Macaca fascicularis. The following applies: whole blood.
The nature of data set [23]: Oral bioavailability in Cynomolgus monkey blood at 10 mg/kg measured at 2 to 72 hrs by LC-MS/MS analysis. The following applies: time 2-72 hrs. The data set is classed as ADME, organism-based, Macaca fascicularis.
Data set [24] is described as follows: Cardiotoxicity in anesthetized guinea-pig assessed as QRS widening at 90 nM. The format is toxicity, Cavia porcellus. The following applies: 0.09 µM.
Data set [25] can be described thus: Cardiotoxicity in anesthetized guinea-pig assessed as cardiac contractility. The format is toxicity, Cavia porcellus. The following applies: 0.09 µM, DDE = dose-dependent effect, dose 90 nM.
A short description of data set [26]: Cmax in Han Wistar rat at 1000 mg/kg, po administered every other day for 7 days. The data set is classed as ADME, organism-based. Details: dose 1000 mg/kg, time 7 day, route po. The following applies: in vivo.
Data set [27] can be described thus: Toxicity in Han Wistar rat assessed as changes in ophthalmology at 250 to 1000 mg/kg, po administered every other day for 7 days. The following applies: in vivo, 168 h, dose 250-1000 mg/kg, time 7 day. The format is organism-based.
Data set [28] in a line: Toxicity in Han Wistar rat assessed as body weight gain at 250 to 1000 mg/kg, po administered every other day for 7 days. The data set is classed as organism-based. As to conditions: in vivo, 168 h, dose 250-1000 mg/kg, time 7 day.
The nature of data set [29]: Toxicity in Han Wistar rat assessed as effect on scotopic amplitude at 1000 mg/kg, po administered every other day for 7 days by ERG analysis. The format is organism-based. The following applies: in vivo, 168 h, time 7 day.
Data set [30] in a line: Genotoxicity in Han Wistar rat by ames assay. The data set is classed as toxicity.
Data set [31] deals with NIH3T3. Nature of the data set: Phototoxicity against mouse 3T3 cells by neutral red uptake assay. The format is toxicity, cell-based.

Converted amounts (≈) assume the structure as drawn. The source made the active and inactive calls. The rule behind the calls is not given here.

Consider `C[C@H]1C[C@@H](N2C(=N)N[C@](C)(c3cccc(Nc4ccc(C5CC5)nc4)c3Cl)CC2=O)CCO1`, for which the outcome in data set [1], in data set [3] and in data set [4] was Active. Further, in data set [2], the exposure (AUC) is on record as 2 10^6nM. The same molecule came in with a solubility in [5] of 960 µM (≈ 449 µg/mL). In addition, the Drug metabolism result in data set [6] and in data set [7] was “Metabolite_Detected” in each case. For the same molecule, the IC50 in data set [8] turned out to be 16000 nM; in [9], 27000 nM; in [10] it was 28000 nM.

With `C[C@H]1C[C@@H](N2C(=N)N[C@](C)(c3cccc(NC(=O)c4cccc(C#N)c4)c3Cl)CC2=O)CCO1`, the IC50 stood at 24 nM in [11]; 18 nM in data set [12]; 33 nM in data set [13]; 15 nM in [14]; 20 nM in data set [15]; 22 nM in [16]. Moreover, the IC50 in [17] was found to be 17 nM; in data set [18], 7 nM. Besides, the result in [19] was Active. The CLH in data set [20] was determined as 66 µL/min. This molecule showed a clearance in data set [21] of 18.9 mL/min/kg. In addition, in data set [22], the AUC was found to be 1.91 µM·h. Also, the bioavailability in data set [23] was found to be 39%. Further, the Activity entry is on record as “Non-Toxic” in [24]; “Dde” in data set [25]; “Non-Toxic” in [27]; “Non-Toxic” in data set [28]; “Non-Toxic” in data set [29]; “Non-Toxic” in data set [30]. Also, the Activity entry in data set [31] is recorded as “Non-Toxic”. In data set [26], the Cmax was 25000 ng/mL.
